Measurements reported in patent US20250059201A1, “CAMPTOTHECIN COMPOUND AND CONJUGATE THEREOF” (priority 2021, published 2025).
Where two headings read alike, the source gives them in different places.

Key:
Format in all cases: cell-based
[1] = tested on: BT-20; test: Proliferation-inhibiting effect on tumor cells (SRB or MTT assay); details: Homo sapiens, BT-20, 144 h
Experimental: (§1) For cells growing by adherence, SRB assay was used to detect effect of antibody-drug conjugates or camptothecins on the proliferation of tumor cells in vitro cultured. A certain number of cells in exponential growth phase were inoculated in 96-well cell culture plates, and when the cells grew by adherence overnight, antibody drug conjugates or camptothecins of different concentrations were added into the cells. 144 hours later, the cells were fixed with trichloroacetic acid, and then stained with SRB (prepared in 1% glacial acetic acid at a concentration of 4 mg/mL). 10 mM Tris solution was added into each well to solubilize the bound SRB. OD values at 510 nm were read on a microplate reader.
(§2) Inhibition (%)=([…] of control well−OD value of dosed well)/OD value of control well×100%
(§3) For cells growing in suspension, MTT assay was used to detect effect of antibody-drug conjugates or camptothecins on the proliferation of tumor cells in vitro cultured. A certain number of cells in exponential growth phase were inoculated in 96-well cell culture plates, and when the cells grew in suspension overnight, antibody-drug conjugates or camptothecins of different concentrations were added into the cells. 144 hours later, MTT was added to each well of the plates, and the incubation was continued for 4 hours at 37° C. in a 5% CO2 saturated humidity incubator. Next, 100 μL of SDS-isobutanol-HCl solution was added into each well of the plates, and OD values at 570 nm and 690 nm were read on a microplate reader.
(§4) Half maximal inhibitory concentration (IC50) was calculated from the inhibition (%) at those different concentrations using the software Graphpad Prism 8.0. The experiment was repeated once and the data was expressed as mean±SD.

[2] = tested on: BT-474; test: as above; details: Homo sapiens, BT-474, 144 h
Experimental: as §1, §2, §3, §4

[3] = tested on: BxPC-3; test: as above; details: Homo sapiens, BXPC-3, 144 h
Experimental: as §1, §2, §3, §4

[4] = tested on: Calu-3; test: as above; details: Homo sapiens, Calu-3, 144 h
Experimental: as §1, §2, §3, §4

[5] = tested on: Colo 205; test: as above; details: Homo sapiens, COLO 205, 144 h
Experimental: as §1, §2, §3, §4

[6] = tested on: HT-29; test: as above; details: Homo sapiens, HT-29, 144 h
Experimental: as §1, §2, §3, §4

[7] = tested on: HT1376; test: as above; details: Homo sapiens, HT-1376, 144 h
Experimental: as §1, §2, §3, §4

[8] = tested on: MCF-7; test: as above; details: Homo sapiens, MCF7, 144 h
Experimental: as §1, §2, §3, §4

[9] = tested on: MDA-MB-231/TROP2; test: as above; details: Homo sapiens, MDA-MB-231, 144 h
Experimental: as §1, §2, §3, §4

[10] = tested on: MDA-MB-231; test: as above; details: Homo sapiens, MDA-MB-231, 144 h
Experimental: as §1, §2, §3, §4

[11] = tested on: MDA-MB-468; test: as above; details: Homo sapiens, MDA-MB-468, 144 h, read-out: IC50 (nM) Mean ± SD
Experimental: as §1, §2, §3, §4

[12] = tested on: NCI-N87; test: as above; details: Homo sapiens, NCI-N87, 144 h
Experimental: as §1, §2, §3, §4

[13] = tested on: BxPC-3 cells; test: Apoptosis-inducing effect; details: BxPC-3, 120 hours, over the tested concentrations
Experimental: BxPC-3 cells (purchased from: ATCC) were inoculated into 6-well plates, and then treated with Trop2-ADC-14 (0.020, 0.196, and 1.963 nM), DS-1062 (0.020, 0.196, and 1.963 nM), the mAb in Trop2-ADC-14 (i.e., antibody h23-12) (6.728 nM) and Compound 3 (0.1, 1, and 10 nM) for 120 hours. Next, the cells were harvested, and Annexin-V-FITC and PI were added thereto, and the cells were stained at room temperature for 15 minutes in dark, and finally were re-suspended in the added 300 μl of 1× binding buffer. Apoptosis was detected with a flow cytometer (BD AccuriTMC6 Plus flow cytometer), for which 1×10^4 cells were gated for each group. Experimental data was analyzed using software BD CSampler™ Plus C6.

[14] = read-out: IC50 (nM) 1st experiment
[15] = read-out: IC50 (nM) 2nd experiment

## CC[C@@]1(O)C(=O)OCc2c1cc1n(c2=O)Cc2c-1nc1ccc(N)c3c1c2C(F)(F)CC3 [Compound 3]
[1]; [14]
  IC50: 0.5 nM
[1]; [15]
  IC50: 0.5 nM
[1]; read-out: IC50 (nM) Mean ± SD
  IC50: 0.53 ± 0.01 nM
[2]; [14]
  IC50: 2.3 nM
[2]; [15]
  IC50: 0.5 nM
[2]; read-out: IC50 (nM) Mean ± SD
  IC50: 1.43 ± 1.25 nM
[3]; [14]
  IC50: 0.2 nM
[3]; [15]
  IC50: 0.2 nM
[3]; read-out: IC50 (nM) Mean ± SD
  IC50: 0.17 ± 0.01 nM
[4]; [14]
  IC50: 0.4 nM
[4]; [15]
  IC50: 0.4 nM
[4]; read-out: IC50 (nM) Mean ± SD
  IC50: 0.4 ± 0.02 nM
[5]; [14]
  IC50: 0.2 nM
[5]; [15]
  IC50: 0.2 nM
[5]; read-out: IC50 (nM) Mean ± SD
  IC50: 0.21 ± 0.05 nM
[6]; [14]
  IC50: 0.4 nM
[6]; [15]
  IC50: 0.4 nM
[6]; read-out: IC50 (nM) Mean ± SD
  IC50: 0.4 ± 0.01 nM
[7]; [14]
  IC50: 1 nM
[7]; [15]
  IC50: 0.9 nM
[7]; read-out: IC50 (nM) Mean ± SD
  IC50: 0.98 ± 0.08 nM
[8]; [14]
  IC50: 0.2 nM
[8]; [15]
  IC50: 0.1 nM
[8]; read-out: IC50 (nM) Mean ± SD
  IC50: 0.11 ± 0.08 nM
[9]; [14]
  IC50: 0.1 nM
[9]; [15]
  IC50: 0.1 nM
[9]; read-out: IC50 (nM) Mean ± SD
  IC50: 0.06 ± 0.01 nM
[10]; [14]
  IC50: 0.8 nM
[10]; [15]
  IC50: 0.8 nM
[10]; read-out: IC50 (nM) Mean ± SD
  IC50: 0.69 ± 0.15 nM
[11]
  IC50: 0.16 ± 0.01 nM
[12]; [14]
  IC50: 0.4 nM
[12]; [15]
  IC50: 0.5 nM
[12]; read-out: IC50 (nM) Mean ± SD
  IC50: 0.47 ± 0.07 nM
[13]
  apoptosis-inducing effect: induced apoptosis of BxPC-3 cells in a concentration-dependent manner
